Measurements published in publication PMC8400257, “2-Phenoxy-3-Trichloromethylquinoxalines Are Antiplasmodial Derivatives with Activity against the Apicoplast of Plasmodium falciparum” (Pharmaceuticals, 2021).

Tested on: P. falciparum ART-sensitive strain F32-TEM
Experiment: Standard in vitro chemo-sensitivity assay, F32-TEM
Format: cell-based
Settings: Plasmodium falciparum, F32, 48 h, read-out: Mean ± SEM EC50 values F32-TEM
Method: The Plasmodium falciparum ART-resistant strain F32-ART5 and its tween ART-sensitive strain F32-TEM [33, 41] were cultivated at 37 °C with 5% CO2 in human red blood cells (EFS, French Blood Bank) diluted to 2% hematocrit in RPMI-1640 medium (Biowest, Nuaillé, France) supplemented with 5% human serum (EFS, French Blood Bank), as previously reported.
The chemosensitivity assay was carried out in 96-well culture plates on synchronized ring-stage parasites at 1% parasitemia obtained after D-sorbitol treatment. The antiplasmodial activities were evaluated using the SYBR Green I method. Parasites were exposed for 48 h to a range of concentrations of the different tested compounds. Each drug concentration was tested in triplicates. Parasite pellets were then washed in 1× PBS prior to lysing red blood cells at −20 °C overnight. Then, the plates were thawed and 100 µL of each well were transferred into a black 96-well plate. Next, 100 µL per well of SYBR Green I (Thermo Fisher) diluted at a final concentration of 2× in lysis buffer (20 mM Tris base pH 7.5, 5 mM EDTA, 0.008% w/v saponin, 0.08% w/v Triton X-100) were added and left to incubate for 1 h at room temperature prior to reading the plates on BioTek FLx800 Microplate Fluorescence Reader (λexcitation = 485 nm, λemission = 528 nm). Relative EC50 values were determined using GraphPad Prism software.

Question: For `O=[N+]([O-])c1ccc(Oc2nc3ccccc3nc2C(Cl)(Cl)Cl)cc1` [3i, 2-(4-Nitrophenoxy)-3-trichloromethylquinoxaline], which EC50 is on record?
Answer: The EC50 was 392 ± 34 nM.
